Assay results published in patent publication US6521633B2, “Treating NIDDM with RXR agonists” (Ligand Pharmaceuticals Incorporated, priority 1995, dated 2003).

Columns and labels:
3T3-LI cells [1] = test: 96-well plate triglyceride accumulation assay in differentiating adipocytes; assay type: cell-based, mouse; conditions: for triglyceride accumulation: retinoids and BRL 49653 at 1 μM, insulin at 0.01 mg/ml, alone or all together; for triglyceride accumulation on addition of retinoid with BRL 49653: retinoid 1 μM with BRL 49653 1 μM
From the text: For a more quantitative assay and rapid screening of compounds, a 96-well plate assay was developed to quantitate the amount of triglyceride produced by the differentiating adipocytes. […] The level of triglyceride accumulation can then be measured via an enzymatic color reaction which can be read in a plate reader. The retinoid modulation of lipid formation was quantitated by monitoring triglyceride formation.

db/db mice = test: In vivo experiment with db/db mice; conditions: for increase of HDL-cholesterol levels in comparison to controls: BRL 49653, or combination, terminal serum, precipitation method; for lowering of the level of glucose in comparison to control: BRL 49653 1 mg/kg, LG 100268 20 mg/kg, or combination
Experimental: Animals: Strain Diabetic C57BLKS/Jm+/+db, 82 mice
Mice were identified by an ear punch code (#1-82) and separated into 8 groups (A-H). Each group consisted of 10 mice separated into 4 cages with 2-3 mice/cage. […] Control group C consisted of 12 mice. […] Food and water were provided ad libitum. Food intake/cage was measured over selected periods and expressed as g food consumed/100 g mouse/day.
(§1) On days of study, food was removed from the cages at selected intervals of time between 6:15 and 7:00 AM. Animal weights were recorded 2 h after start of fast and blood samples taken after a 3 h fast. Blood was drawn from a cut at the tip of the tail and collected into a heparinized capillary tube (approx. 75 μl volume). After centrifugation, the hematocrit was read in a microcapillary reader, recorded and the tube broken for recovery of plasma for analysis of glucose, triglyceride and insulin concentration.
Blood samples were collected on days 0−1,0, 3, 7, 10, and on the final day of study, days 13-15. […] The various solutions were gavaged daily to their respective groups based on the animals weight taken that morning or the weight of the animal taken on the preceding day of weighing. To assess alterations in plasma FFA, on day 10 an addition 75 μl blood sample was collected into an EDTA-coated capillary tube immediately after collecting the basal heparinized capillary tube sample.
On the final day of study, mice were not gavaged with test solution. The last gavage was administered on the day preceding the final day, i.e., day 12 for animals terminated on day 13, day 13 for animals terminated on day 14 and day 14 for animals terminated on day 15. Terminal blood was collected by decapitation to provide serum for assessment of HDL.

3T3-L1 cells = test: Insulin stimulated labeled 2-deoxyglucose uptake assay; assay type: cell-based, mouse; conditions: 3T3-L1 treated 10 days; BRL 49653 or LG 100268 (1 μM); insulin 0.01 mg/ml for 5 days; normalized to total cellular protein
Experimental: A fourth indicator for the utility of a compound in treating NIDDM or insulin-resistant diabetes is the compound's, ability to enhance insulin-stimulated glucose uptake. Labeled 2-deoxyglucose (2-DOG, a glucose analog) assay was performed with a preadipocyte cell line in the presence of insulin and a candidate compound to measure the level of 2-DOG incorporation.
A murine preadipocyte cell line, 3T3-L1, is widely used to study glucose uptake, adipogenesis, and has been used in the characterization of thiazolidinediones and other PPARγ activators.
Insulin was added to the cells at a concentration of 0.01 mg/ml for 5 days, thereafter no insulin was added. […] The level of incorporated labeled 2-DOG was normalized to the amount of total cellular protein.

3T3-LI cells [2] = test: Oil red O staining of differentiating 3T3-LI adipocytes; assay type: cell-based, mouse; conditions: for Percent of Differentiated Cells: 3T3-L1, BRL 49653 and LG 100268 at 1 μM; for Percent of Differentiated Cells / cells induced to differentiate into adipocytes: insulin at 0.01 mg/ml; for cells induced to differentiate into adipocytes: BRL 49653 and retinoid at 1 μM
From the text: They are contact inhibited and can be induced to differentiate into adipocyte cells containing large lipid droplets within the cytoplasm. Adipocyte differentiation can be observed by oil red O staining which stains the lipid droplets within the cytoplasm red. The extent of adipocyte differentiation can then be monitored by microscope observation.

C3H/10T1/2 cells = test: Oil red O staining of C3H/10T1/2 cells; assay type: cell-based, mouse; conditions: for Experiment B (+BRL + Insulin) % differentiated cells / Experiment A (+BRL) % differentiated cells: 7 days; for effect on differentiation induced by BRL 49653 or BRL/insulin: in combination with BRL 49653
[3] = tested on: LPL (lipoprotein lipase) mRNA and PPARγ mRNA; test: Northern blot analysis of adipocyte specific genes in 3T3-LI cells; assay type: cell-based, mouse; conditions: 3T3-LI treated for 7 days; BRL 49653 1 μM, LG 100268 1 μM, insulin 0.01 mg/ml
Experimental: A third measure of adipocyte differentiation is to examine regulation of gene expression. […] Northern blot analysis was used to dissect the molecular aspects of how retinoids effect target genes of differentiating adipocytes. PPARγ, lipoprotein lipase (LPL), and β-actin (loading control) mRNA levels were monitored after cells were treated with thiazolidinediones and retinoids.
Adipocyte specific genes were monitored via northern blot analysis.

ob/ob mice = test: In vivo experiment with ob/ob mice; conditions: mouse
Experimental: Each group consisting of 10 mice.
as §1
Blood samples were collected on days 0−3, 0, 3, 6, 8, 10, 14±1 and final collections were made on days 15, 16 or 17. FFA samples were collected on day 10 by drawing a second 75 μl blood sample in a non-heparinized tube coated with EDTA. This tube was collected immediately after the heparinized tube collection.
Animals in groups H were administered control gavage solution (0.6 ml/42 g) daily commencing on day 0 and ending on the day preceding the final day. 11 test solutions were administered to animals in groups designated A-G, I-L. All gavage solutions were administered after refeeding on days in which mice were fasted for blood sampling.

[4] = BRL 0.1 μM + insulin 0.01 mg/ml, alone or plus ALRT 1057 1 μM or LGD 1069 1 μM
[5] = BRL 0.1 μM alone or plus ALRT 1057 1 μM, LGD 1069 1 μM or TTNPB 10 nM
[6] = BRL 10 μM + insulin 0.01 mg/ml, alone or plus ALRT 1057 1 μM, LGD 1069 1 μM or TTNPB 10 nM
[7] = BRL 10 μM alone or plus ALRT 1057 1 μM, LGD 1069 1 μM or TTNPB 10 nM
[8] = middle group r17-r20, headed BRL (0.1 μM), + insulin 0.01 mg/ml, alone or plus ALRT 1057 1 μM, LGD 1069 1 μM or TTNPB 10 nM
[9] = middle group r17-r20, headed BRL (0.1 μM), alone or plus ALRT 1057 1 μM, LGD 1069 1 μM or TTNPB 10 nM

Compound | triglyceride accumulation (3T3-LI cells [1]) | increase of HDL-cholesterol levels in comparison to controls (db/db mice; LG 100268 20 mg/kg) | lowering of the level of glucose in comparison to control (db/db mice; daily gavage, by day 15) [%] | increase in 2-DOG uptake (3T3-L1 cells) | Percent of Differentiated Cells (3T3-LI cells [2]) [%] | cells induced to differentiate into adipocytes (3T3-LI cells [2]; 3T3-LI) [%] | triglyceride accumulation on addition of retinoid with BRL 49653 (3T3-LI cells [1]) | amount of adipocyte differentiation when used in combination with BRL 49653 (3T3-LI cells [2]; 3T3-LI) | Experiment B (+BRL + Insulin) % differentiated cells (C3H/10T1/2 cells; [4]) [%] | Experiment A (+BRL) % differentiated cells (C3H/10T1/2 cells; [5]) [%] | Experiment B (+BRL + Insulin) % differentiated cells (C3H/10T1/2 cells; [6]) [%] | Experiment A (+BRL) % differentiated cells (C3H/10T1/2 cells; [7]) [%] | effect on differentiation induced by BRL 49653 or BRL/insulin (C3H/10T1/2 cells) | Experiment B (+BRL + Insulin) % differentiated cells (C3H/10T1/2 cells; [8]) [%] | Experiment A (+BRL) % differentiated cells (C3H/10T1/2 cells; [9]) [%] | LPL and PPARγ mRNA levels, relative signal normalized to β-actin [3] | lowering of the level of triglycerides (db/db mice; daily gavage, LG 100268 20 mg/kg, BRL 49653 1 mg/kg, or combination, by day 15) [%] | lowering of the level of glucose in comparison to control (ob/ob mice) [%] | lipid droplets within the cytoplasm (3T3-LI cells [2]; 3T3-LI, LG 100268 at 1 μM)
CN(CCOc1ccc(CC2SC(=O)NC2=O)cc1)c1ccccn1 (stereo not shown) [BRL 49653, 5-[[4-[2-(methyl-2-pyridinylamino)ethoxy]phenyl]methyl]-2,4-thiazolidinedione, reference compound] | induced some triglyceride accumulation | equivalent level of increase | 40 | About 5 fold | 50 | 50 | – | – | – | – | – | – | – | – | – | – | – | – | –
C=C(c1ccc(C(=O)O)cc1)c1cc2c(cc1C)C(C)(C)CCC2(C)C [LGD 1069] | – | – | – | – | – | – | increased the amount of triglyceride accumulation | increased the amount of differentiation | 90 | 45 | 99 | 80 | large increase in the amount of differentiation | 90 | 65 | – | – | – | –
CC1=C(/C=C/C(C)=C\C=C\C(C)=C\C(=O)O)C(C)(C)CCC1 [ALRT 1057, 9-cis retinoic acid] | – | – | – | – | – | – | – | increased the amount of differentiation | 65 | 45 | 99 | 80 | large increase in the amount of differentiation | 90 | 65 | – | – | – | –
Insulin: insulin, used at 0.01 mg/ml | induced some triglyceride accumulation | – | – | – | 20 | – | – | – | – | – | – | – | – | – | – | three to five fold increase | – | – | –
Cc1cc2c(cc1C1(c3ccc(C(=O)O)cn3)CC1)C(C)(C)CCC2(C)C [LG 100268, 2-[1-(3,5,5,8,8-pentamethyl-5,6,7,8-tetrahydro-2-naphthyl)-cyclopropyl]-pyridine-5-carboxylic acid] | largest response | 20% | 40 | About 2 fold | 50 | 50 | increased the amount of triglyceride accumulation | increased dramatically | – | – | – | – | – | – | – | – | 46 | ~50 | bigger redder lipid droplets
C/C(=C\c1ccc(C(=O)O)cc1)c1ccc2c(c1)C(C)(C)CCC2(C)C [TTNPB, reference compound] | – | – | – | – | – | – | – | – | – | 0.2 | 50 | 5 | inhibited the differentiation | 30 | 2 | – | – | – | –
